Data reported in patent publication US20230348564A1, “ANTI-CANCER PROTEINS” (UNICHEM LABORATORIES LTD, priority 2020, published 2023).

How the values were obtained:
Glioblastoma (U251MG) = test: cytotoxicity in Brain Tumor Cell lines by MTT assay; settings: 0.1 Mm-100 μM, 72 h
[1] = tested on: T24 (Urinary bladder/transitional cell carcinoma); test: Xenograft study; format: in vivo, mice; settings: IP
Description: (§1) The Xenograft models used were HT-29, KB, PA-1, MCF-7, PANC-1, T24 and MDA-MB-231. The basic study design for the Xenograft study was as follows: • 1. Cell maintenance and cell suspension preparation • 2. Aseptic injection of tumor cell suspension in the donor animal • 3. Randomization of animals in respective groups • 4. IP dosing of test items in predetermined doses • 5. IP administration of standard • 6. After completion of dosing period. • 7. The Tumor volume recording weekly twice while body weight and clinical signs daily.

[2] = tested on: PA-1 (Ovary teratocarcinoma); test: Xenograft study; format: in vivo, mice; settings: PA-1 xenograft, IP
Description: as §1

[3] = tested on: MDA-MB-231 (Mammary gland/breast adenocarcinoma); test: Xenograft study; format: in vivo, mice; settings: MDA-MB-231 xenograft, IP
Description: as §1

MCF-7 (Breast cancer) = test: Xenograft study; format: in vivo, mice; settings: MCF-7 xenograft, IP
Description: as §1

KB (Cervical cancer) = test: Xenograft study; format: in vivo, mice; settings: IP
Description: as §1

## COc1cccc2c1C(=O)c1c(O)c3c(c(O)c1C2=O)C[C@@](O)(C(=O)CO)C[C@@H]3O[C@H]1C[C@H](N)[C@H](O)[C@H](C)O1 [Doxorubicin, reference compound]
Glioblastoma (U251MG)
  % of cytotoxicity: 11.2%-78.6%
[1]
  Maximum Tumor Growth Inhibition (%): 59.07%
  Tumor Volume (mm^3) (Mean ± SEM): 366.32 ± 34.28 mm^3
[2]
  Maximum Tumor Growth Inhibition (%): 84.48%
  Tumor Volume (mm^3) (Mean ± SEM): 631 ± 87 mm^3
[3]
  Maximum Tumor Growth Inhibition (%): 42.12%
  Tumor Volume (mm^3) (Mean ± SEM): 808.47 ± 178.59 mm^3
MCF-7 (Breast cancer)
  Maximum Tumor Growth Inhibition (%): 65.23%
  Tumor Volume (mm^3) (Mean ± SEM): 771 ± 65 mm^3
KB (Cervical cancer)
  Maximum Tumor Growth Inhibition (%): 64.60%
  Tumor Volume (mm^3) (Mean ± SEM): 616 ± 118 mm^3
